Ki and inhibition data for 36 compounds are collected here from patent US20090325964A1, “Piperazine Metabotropic Glutamate Receptor 5 (MGLUR5) Negative Allosteric Modulators For Anxiety/Depression” (Wyeth, priority 2008, published 2009).

Read-outs that look alike come from different tables or passages of the source.

The target in this assay is T1, rat mGluR5 receptor (Rattus norvegicus, UniProt P31424).
T1 construct: expressed in transfected cells; host or cells: HEK-293
Briefly: [3H]-MPEP displacement binding assay, HEK-293 cell membranes expressing rat mGluR5. To be noted: for Ki: read-out: Median Ki; for inhibition at 10 µM: 1 h, single point, @ 10 μm compound, Table 1A, read-out: PCT INHIB (%) @ 10 μm. On the procedure: MGluR5 expressing HEK-293 cells were scraped off a plate, transferred to centrifuge tubes and washed twice by centrifugation (2000 rpm for 10 minutes, at 4° C.) in buffer (50 mM Tris pH 7.5). The resulting pellets were aliquoted and stored at minus 80° C. On the day of assay, the cells were thawed on ice and re-suspended in buffer. The binding assay was performed in a 96 well microtiter plate in a total volume of […]. Non-specific binding was determined in the presence of 10 μM MPEP. The binding reaction included a final radioligand [^3H]-MPEP concentration of 4 nM and 12-25 μg membrane protein per well. Following a 60 minute incubation at room temperature, the reaction was terminated by the addition of ice cold buffer and rapid filtration through a GF/B filter that had been presoaked for 30 minutes in 0.5% PEI. Compounds were initially tested in a single point assay to determine percent inhibition at 10 μM.
Percent inhibition and Ki values were generated by GraphPad Prism and Excel Fit. IC50 values were calculated using GraphPad by fitting to a 1 or 2 site-binding model.
where [L] is the concentration of free radioligand and Kd is the dissociation constant of radioligand for the receptor.

Setting [1] is: [3H]-MPEP displacement, rat mGluR5.

T1 sequence (P31424 21-1203): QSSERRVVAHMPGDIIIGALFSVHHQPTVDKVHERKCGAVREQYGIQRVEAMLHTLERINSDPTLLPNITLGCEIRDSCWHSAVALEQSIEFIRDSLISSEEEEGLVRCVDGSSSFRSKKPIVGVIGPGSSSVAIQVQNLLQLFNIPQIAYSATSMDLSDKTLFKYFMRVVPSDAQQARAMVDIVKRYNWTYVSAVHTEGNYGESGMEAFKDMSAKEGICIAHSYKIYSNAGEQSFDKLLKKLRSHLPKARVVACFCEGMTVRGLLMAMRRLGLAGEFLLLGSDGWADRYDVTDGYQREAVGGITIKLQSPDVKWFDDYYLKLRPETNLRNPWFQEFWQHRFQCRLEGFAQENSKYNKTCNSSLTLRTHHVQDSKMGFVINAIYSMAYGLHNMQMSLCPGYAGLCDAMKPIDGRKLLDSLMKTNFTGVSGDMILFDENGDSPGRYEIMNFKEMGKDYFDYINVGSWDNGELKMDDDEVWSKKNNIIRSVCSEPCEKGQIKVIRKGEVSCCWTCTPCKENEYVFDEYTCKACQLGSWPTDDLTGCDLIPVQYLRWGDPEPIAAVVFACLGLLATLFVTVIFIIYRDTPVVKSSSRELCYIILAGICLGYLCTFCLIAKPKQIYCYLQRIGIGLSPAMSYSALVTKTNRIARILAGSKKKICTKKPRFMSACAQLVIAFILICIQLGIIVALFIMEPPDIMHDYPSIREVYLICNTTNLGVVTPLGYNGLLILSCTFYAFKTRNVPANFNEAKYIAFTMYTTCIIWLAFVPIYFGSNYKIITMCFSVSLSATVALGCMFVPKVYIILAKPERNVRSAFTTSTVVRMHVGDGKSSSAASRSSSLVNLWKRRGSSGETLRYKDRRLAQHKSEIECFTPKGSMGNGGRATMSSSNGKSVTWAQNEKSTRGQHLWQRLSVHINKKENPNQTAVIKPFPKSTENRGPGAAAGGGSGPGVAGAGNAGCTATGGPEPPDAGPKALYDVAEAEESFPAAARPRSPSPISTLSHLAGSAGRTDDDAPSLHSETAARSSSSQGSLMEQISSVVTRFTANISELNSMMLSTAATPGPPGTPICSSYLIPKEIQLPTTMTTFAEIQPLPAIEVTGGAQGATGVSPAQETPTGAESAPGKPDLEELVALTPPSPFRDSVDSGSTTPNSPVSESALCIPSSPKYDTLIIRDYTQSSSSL

For “1-(2-chlorobenzyl)-4-[4-methoxy-3-(pyridin-2-ylethynyl)benzoyl]piperazin-2-one [Compound 332]”, the Ki under setting [1] amounted to 32 nM.
“1-(3-chlorobenzyl)-4-[4-methoxy-3-(pyridin-2-ylethynyl)benzoyl]piperazin-2-one [Compound 333]”: the inhibition constant (Ki) under setting [1] was 34 nM.
The same measure, in the same setting: the same measure for “1-(3-chloropyridin-2-yl)-4-{4-methoxy-3-[(3-nitrophenyl)ethynyl]benzoyl}piperazine [Compound 345]”: 3210 nM; for “1-(4-chlorobenzyl)-4-[4-methoxy-3-(pyridin-2-ylethynyl)benzoyl]piperazin-2-one [Compound 334]”: 54 nM.
Regarding “1-(4-methylpyridin-2-yl)-4-{[3-(pyridin-2-ylethynyl)-4-(trifluoromethyl)phenyl]carbonyl}piperazine [Compound 367]”, the Ki ([3H]-MPEP displacement, rat mGluR5 membranes) stood at 8 nM.
Regarding “2-{4-[4-methoxy-3-(pyridin-2-ylethynyl)benzoyl]piperazin-1-yl}-1,3-benzothiazole [Compound 256]”, the Ki under setting [1] came to 43 nM.
As for `Cc1ccc(C#Cc2cccc(C(=O)N3CCN(c4ccccn4)CC3)c2)cc1` [Compound 1, 1-{3-[(4-methylphenyl)ethynyl]benzoyl}-4-pyridin-2-ylpiperazine], the inhibition at 10 µM worked out at 55%.
Consider `O=C(c1cccc(C#Cc2ccc(Cl)cc2)c1)N1CCN(c2ccccn2)CC1` [Compound 3, 1-{3-[(4-chlorophenyl)ethynyl]benzoyl}-4-pyridin-2-ylpiperazine], for which the inhibition at 10 µM was 45%.
As to `Cc1ccccc1C#Cc1cccc(C(=O)N2CCN(c3ccccn3)CC2)c1` [Compound 4, 1-{3-[(2-methylphenyl)ethynyl]benzoyl}-4-pyridin-2-ylpiperazine], the inhibition at 10 µM was 0%.
Consider `O=C(c1cccc(C#Cc2ccccc2C(F)(F)F)c1)N1CCN(c2ccccn2)CC1` [Compound 5, 1-pyridin-2-yl-4-(3-{[2-(trifluoromethyl)phenyl]ethynyl}benzoyl)piperazine], for which the inhibition at 10 µM came out at 0%.
As for `O=C(c1cccc(C#Cc2cccc(O)c2)c1)N1CCN(c2ccccn2)CC1` [Compound 6, 3-({3-[(4-pyridin-2-ylpiperazin-1-yl)carbonyl]phenyl}ethynyl)phenol], the inhibition at 10 µM is 75% and the Ki stood at 1120 nM.
Regarding `Cn1cncc1C#Cc1cccc(C(=O)N2CCN(c3ccccn3)CC2)c1` [Compound 7, 1-{3-[(1-methyl-1H-imidazol-5-yl)ethynyl]benzoyl}-4-pyridin-2-ylpiperazine], the inhibition at 10 µM turned out to be 0%.
Turning to `O=C(c1cccc(C#CC2=CCCCC2)c1)N1CCN(c2ccccn2)CC1` [Compound 8, 1-[3-(cyclohex-1-en-1-ylethynyl)benzoyl]-4-pyridin-2-ylpiperazine], the inhibition at 10 µM turned out to be 78% and the Ki came out at 1220 nM.
For `O=C(c1cccc(C#CC2(O)CCCC2)c1)N1CCN(c2ccccn2)CC1` [Compound 9, 1-({3-[(4-pyridin-2-ylpiperazin-1-yl)carbonyl]phenyl}ethynyl)cyclopentanol], the inhibition at 10 µM turned out to be 0%.
On to `Nc1cccc(C#Cc2cccc(C(=O)N3CCN(c4ccccn4)CC3)c2)c1` [Compound 11, 3-({3-[(4-pyridin-2-ylpiperazin-1-yl)carbonyl]phenyl}ethynyl)aniline], for which the inhibition at 10 µM came out at 85%.
The same measure, in the same setting: with `O=C(c1cccc(C#CC2(O)CCCCC2)c1)N1CCN(c2ccccn2)CC1` [Compound 12, 1-({3-[(4-pyridin-2-ylpiperazin-1-yl)carbonyl]phenyl}ethynyl)cyclohexanol] the figure was 0%; with `O=C(c1cccc(C#CC(O)c2ccccc2)c1)N1CCN(c2ccccn2)CC1` (centres unmarked) [Compound 13, 1-phenyl-3-{3-[(4-pyridin-2-ylpiperazin-1-yl)carbonyl]phenyl}prop-2-yn-1-ol], 15%.
As for `COc1ccc(C(=O)N2CCN(c3ccccn3)CC2)cc1C#CC1=CCCCC1` [Compound 15, 1-[3-(cyclohex-1-en-1-ylethynyl)-4-methoxybenzoyl]-4-pyridin-2-ylpiperazine], the inhibition at 10 µM was 76% and the Ki came out at 236 nM.
Consider `COc1ccc(C(=O)N2CCN(c3ccccn3)CC2)cc1C#CCc1ccccc1` [Compound 16, 1-[4-methoxy-3-(3-phenylprop-1-yn-1-yl)benzoyl]-4-pyridin-2-ylpiperazine], for which the inhibition at 10 µM was 84% and the Ki is 43 nM.
The corresponding values for `COc1cccc(C#Cc2cc(C(=O)N3CCN(c4ccccn4)CC3)ccc2OC)c1` [Compound 17, 1-{4-methoxy-3-[(3-methoxyphenyl)ethynyl]benzoyl}-4-pyridin-2-ylpiperazine] are 91% and 51 nM.
`COc1ccc(C(=O)N2CCN(c3ccccn3)CC2)cc1C#Cc1cccc(C)c1` [Compound 18, 1-{4-methoxy-3-[(3-methylphenyl)ethynyl]benzoyl}-4-pyridin-2-ylpiperazine]: the inhibition at 10 µM was 99% and the inhibition constant (Ki) amounted to 6 nM.
Regarding `COc1ccc(C(=O)N2CCN(c3ccccn3)CC2)cc1C#Cc1cccc(Cl)c1` [Compound 19, 1-{3-[(3-chlorophenyl)ethynyl]-4-methoxybenzoyl}-4-pyridin-2-ylpiperazine], the inhibition at 10 µM came to 97% and the Ki is 6 nM.
As to `COc1cc(C#Cc2cc(C(=O)N3CCN(c4ccccn4)CC3)ccc2OC)cc(OC)c1` [Compound 20, 1-{3-[(3,5-dimethoxyphenyl)ethynyl]-4-methoxybenzoyl}-4-pyridin-2-ylpiperazine], the inhibition at 10 µM was 0%.
For `COc1ccc(C(=O)N2CCN(c3ccccn3)CC2)cc1C#Cc1cc(F)cc(F)c1` [Compound 21, 1-{3-[(3,5-difluorophenyl)ethynyl]-4-methoxybenzoyl}-4-pyridin-2-ylpiperazine], the inhibition at 10 µM was determined as 79% and the inhibition constant (Ki) was determined as 1940 nM.
Regarding `COc1ccc(C(=O)N2CCN(c3ccccn3)CC2)cc1C#Cc1cc(C)ccc1C` [Compound 22, 1-{3-[(2,5-dimethylphenyl)ethynyl]-4-methoxybenzoyl}-4-pyridin-2-ylpiperazine], the inhibition at 10 µM is 43%.
On the same count and under the same terms, with `COc1ccc(C(=O)N2CCN(c3ccccn3)CC2)cc1C#Cc1cc(C)c(C)cc1C` [Compound 23, 1-{4-methoxy-3-[(2,4,5-trimethylphenyl)ethynyl]benzoyl}-4-pyridin-2-ylpiperazine] the figure was 0%.
For `Cc1ccc(C(=O)N2CCN(c3ccccn3)CC2)cc1C#CC1=CCCCC1` [Compound 24, 1-[3-(cyclohex-1-en-1-ylethynyl)-4-methylbenzoyl]-4-pyridin-2-ylpiperazine], the inhibition at 10 µM amounted to 71% and the Ki came to 1290 nM.
The corresponding values for `Cc1ccc(C(=O)N2CCN(c3ccccn3)CC2)cc1C#CCc1ccccc1` [Compound 25, 1-[4-methyl-3-(3-phenylprop-1-yn-1-yl)benzoyl]-4-pyridin-2-ylpiperazine] are 63% and 452 nM.
With `COc1cccc(C#Cc2cc(C(=O)N3CCN(c4ccccn4)CC3)ccc2C)c1` [Compound 26, 1-{3-[(3-methoxyphenyl)ethynyl]-4-methylbenzoyl}-4-pyridin-2-ylpiperazine], the inhibition at 10 µM amounted to 86% and the Ki worked out at 322 nM.
For the compound `Cc1ccc(C(=O)N2CCN(c3ccccn3)CC2)cc1C#Cc1cccc(C(F)(F)F)c1` [Compound 27, 1-(4-methyl-3-{[3-(trifluoromethyl)phenyl]ethynyl}benzoyl)-4-pyridin-2-ylpiperazine], the inhibition at 10 µM was 81% and the Ki worked out at 469 nM.
The corresponding values for `Cc1ccc(C(=O)N2CCN(c3ccccn3)CC2)cc1C#Cc1cccc(Cl)c1` [Compound 28, 1-{3-[(3-chlorophenyl)ethynyl]-4-methylbenzoyl}-4-pyridin-2-ylpiperazine] are 79% and 76 nM.
Turning to `Cc1ccc(C(=O)N2CCN(c3ccccn3)CC2)cc1C#Cc1cc(F)cc(F)c1` [Compound 29, 1-{3-[(3,5-difluorophenyl)ethynyl]-4-methylbenzoyl}-4-pyridin-2-ylpiperazine], the inhibition at 10 µM was 41%.
With `Cc1ccc(C)c(C#Cc2cc(C(=O)N3CCN(c4ccccn4)CC3)ccc2C)c1` [Compound 30, 1-{3-[(2,5-dimethylphenyl)ethynyl]-4-methylbenzoyl}-4-pyridin-2-ylpiperazine], the inhibition at 10 µM came to 55% and the inhibitory constant (Ki) worked out at 3810 nM.
The corresponding values for `Cc1cc(C#Cc2cc(C(=O)N3CCN(c4ccccn4)CC3)ccc2C)ccc1F` [Compound 31, 1-{3-[(4-fluoro-3-methylphenyl)ethynyl]-4-methylbenzoyl}-4-pyridin-2-ylpiperazine] are 68% and 472 nM.
`Cc1ccc(C(=O)N2CCN(c3ccccn3)CC2)cc1C#Cc1cccnc1` [Compound 32, 1-[4-methyl-3-(pyridin-3-ylethynyl)benzoyl]-4-pyridin-2-ylpiperazine]: the inhibition at 10 µM turned out to be 68% and the Ki was determined as 3110 nM.
The corresponding values for `COc1ccc(C(=O)N2CCN(c3ccccn3)CC2)cc1C#Cc1cccc(O)c1` [Compound 33, 3-({2-methoxy-5-[(4-pyridin-2-ylpiperazin-1-yl)carbonyl]phenyl}ethynyl)phenol] are 82% and 541 nM.
